Measured values from the NIST ThermoML archive (doi:10.1021/je101178u).
Several values for one entry are separate records, joined by “and”; a condition that tells them apart may be missing. Equal entries are not always repeated. ± gives the expanded uncertainty stated by the source.

Conditions: 307.15 K, Fluid (supercritical or subcritical phases); for viscosity: vibrating wire; for mass density: Buoyancy - hydrostatic balance with magnetic suspension - one sinker

CC [ethane]
Conditions | mass density | viscosity
9705 kPa | – | 0.04738 ± 0.00029 mPa·s
12507 kPa | 380.383 ± 1.3 kg/m3 | 0.05257 ± 0.00045 mPa·s
12508 kPa | 380.388 ± 1.3 kg/m3 | 0.05257 ± 0.00045 mPa·s
12509 kPa | 380.392 ± 1.3 kg/m3 | 0.05255 ± 0.00045 mPa·s
12544 kPa | 380.585 ± 0.86 kg/m3 | 0.05276 ± 0.00032 mPa·s
12545 kPa | 380.588 ± 0.86 kg/m3 | 0.05268 ± 0.00032 mPa·s
12549 kPa | 380.613 ± 0.86 kg/m3 | 0.05262 ± 0.00032 mPa·s
12554 kPa | 380.638 ± 0.86 kg/m3 | 0.05258 ± 0.00032 mPa·s and 0.0526 ± 0.00032 mPa·s
12558 kPa | 380.661 ± 0.86 kg/m3 | 0.05263 ± 0.00032 mPa·s
12559 kPa | 380.663 ± 0.86 kg/m3 | 0.05263 ± 0.00032 mPa·s
15941 kPa | 396.414 ± 1.3 kg/m3 | 0.05768 ± 0.00072 mPa·s
15981 kPa | 396.579 ± 1.3 kg/m3 | 0.05768 ± 0.00079 mPa·s
15985 kPa | 396.595 ± 1.3 kg/m3 | 0.05765 ± 0.00091 mPa·s
15986 kPa | 396.599 ± 1.3 kg/m3 | 0.05767 ± 0.00082 mPa·s
15987 kPa | 396.601 ± 1.3 kg/m3 | 0.05769 ± 0.00072 mPa·s
16874 kPa | 400.063 ± 0.98 kg/m3 and 400.065 ± 0.98 kg/m3 | 0.05888 ± 0.00036 mPa·s and 0.05882 ± 0.00036 mPa·s
16875 kPa | 400.066 ± 0.98 kg/m3 and 400.067 ± 0.98 kg/m3 and 400.068 ± 0.98 kg/m3 | 0.05887 ± 0.00036 mPa·s [middle of 4 runs]
16876 kPa | 400.071 ± 0.98 kg/m3 and 400.073 ± 0.98 kg/m3 | 0.05885 ± 0.00036 mPa·s
16877 kPa | 400.075 ± 0.98 kg/m3 | 0.05884 ± 0.00036 mPa·s
19746 kPa | 410.021 ± 1 kg/m3 and 410.023 ± 1 kg/m3 | 0.06238 ± 0.00038 mPa·s and 0.06241 ± 0.00038 mPa·s
19749 kPa | 410.03 ± 1 kg/m3 | 0.06236 ± 0.00038 mPa·s
19750 kPa | 410.034 ± 1 kg/m3 | 0.06242 ± 0.00038 mPa·s
19751 kPa | 410.039 ± 1 kg/m3 | 0.0624 ± 0.00038 mPa·s
23209 kPa | 420.154 ± 1.2 kg/m3 | 0.06633 ± 0.0004 mPa·s
23210 kPa | 420.157 ± 1.2 kg/m3 and 420.156 ± 1.2 kg/m3 | 0.06633 ± 0.0004 mPa·s and 0.0663 ± 0.0004 mPa·s and 0.06634 ± 0.0004 mPa·s
24530 kPa | 423.617 ± 1.2 kg/m3 and 423.615 ± 1.2 kg/m3 | 0.06776 ± 0.00041 mPa·s and 0.06778 ± 0.00041 mPa·s and 0.06781 ± 0.00041 mPa·s
24531 kPa | 423.619 ± 1.2 kg/m3 | 0.06774 ± 0.00041 mPa·s and 0.06775 ± 0.00041 mPa·s
25875 kPa | 426.955 ± 1.2 kg/m3 | 0.06913 ± 0.00042 mPa·s
25877 kPa | 426.961 ± 1.2 kg/m3 | 0.06914 ± 0.00042 mPa·s
25879 kPa | 426.966 ± 1.2 kg/m3 | 0.06906 ± 0.00042 mPa·s
25881 kPa | 426.969 ± 1.2 kg/m3 | 0.06911 ± 0.00042 mPa·s
29053 kPa | 434.215 ± 1.3 kg/m3 | 0.07235 ± 0.00044 mPa·s
29057 kPa | 434.225 ± 1.3 kg/m3 | 0.07232 ± 0.00044 mPa·s
29063 kPa | 434.238 ± 1.3 kg/m3 | –
